According to article PMC5303819, “Cryptic bioactivity capacitated by synthetic hybrid plant peptides” (Nature Communications, 2017):

How the values were obtained:
hypocotyl stele = assay: Stele-thickening assay (hypocotyl stele width); type: in vivo, Arabidopsis thaliana; settings: for effect on stele radial growth / stele width: 10 μM peptide, liquid medium, 10-day-old hypocotyl, Fig. 1e,f
Protocol: (§1) For the observation of stele and leaf vein, seeds were germinated and cultured with shaking at 110 r.p.m. at 22 °C under continuous light in liquid half-strength MS medium supplemented with 1% sucrose and peptide/control solution. 10-day-old seedlings were fixed in a 1:3 mixture of acetic acid/ethanol, washed with water and mounted in clearing solution (chloral hydrate/glycerol/water=8:1:2) before imaging with a light microscope (Axio Imager.A2, Zeiss).

[1] = test system: Arabidopsis thaliana root; assay: Root-shortening assay (root length); type: in vivo; settings: for root-shortening activity: 1 μM peptide, 14-day-old root length, Fig. 1b, n=13-20; for CLV3-type activity: root 1 µM (stele 10 µM), Supplementary Fig. 8
Protocol: (§2) For root-length measurement, plants were germinated and grown vertically on half-strength Murashige and Skoog (MS) medium supplemented with 1% sucrose and peptide/control solution at 22 °C under continuous light. To observe the RAM, 4-day-old roots were excised and mounted in clearing solution (chloral hydrate/glycerol/water=8:1:2) before imaging with light microscope (Axio Imager.A2, Zeiss).

[2] = test system: Arabidopsis thaliana root; settings: cited from earlier work
Source text: CLV3-like activities have also been reported in other 18 CLE peptides. […] We analysed the structure–activity relationship between CLV3 (Fig. 1a, peptide 1) and CLE25 (Fig. 1a, peptide 2) by swapping the residues at 2nd, 5th, 10th and 12th positions (Fig. 1a, peptide 3–16). […] Although all the chimera peptides shortened the root, only the peptide 15, hereafter call ...

[3] = test system: root apical meristem (RAM); assay: Root apical meristem (RAM) morphology; type: in vivo, Arabidopsis thaliana; settings: 1 μM peptide, 4-day-old, wild type, Fig. 1c
Protocol: as §2

leaf vein xylem strands = assay: Leaf vein xylem strand observation; type: in vivo, Arabidopsis thaliana; settings: 10 μM peptide, 10-day-old clv2-101, Fig. 2c
Protocol: as §1

[4] = biological target: T1, CLV1 ectodomain (CLV1-HT) (Arabidopsis thaliana, UniProt Q9SYQ8); assay: Photo-affinity labelling with [125I]ASA-KIN, CLV1; type: binding
T1 construct: applied it to the membrane fractions containing receptor ectodomains expressed in tobacco cells; made in house; host or cells: tobacco BY-2 cells (microsomal fraction)
T1 sequence (Q9SYQ8 25-638 limits assumed): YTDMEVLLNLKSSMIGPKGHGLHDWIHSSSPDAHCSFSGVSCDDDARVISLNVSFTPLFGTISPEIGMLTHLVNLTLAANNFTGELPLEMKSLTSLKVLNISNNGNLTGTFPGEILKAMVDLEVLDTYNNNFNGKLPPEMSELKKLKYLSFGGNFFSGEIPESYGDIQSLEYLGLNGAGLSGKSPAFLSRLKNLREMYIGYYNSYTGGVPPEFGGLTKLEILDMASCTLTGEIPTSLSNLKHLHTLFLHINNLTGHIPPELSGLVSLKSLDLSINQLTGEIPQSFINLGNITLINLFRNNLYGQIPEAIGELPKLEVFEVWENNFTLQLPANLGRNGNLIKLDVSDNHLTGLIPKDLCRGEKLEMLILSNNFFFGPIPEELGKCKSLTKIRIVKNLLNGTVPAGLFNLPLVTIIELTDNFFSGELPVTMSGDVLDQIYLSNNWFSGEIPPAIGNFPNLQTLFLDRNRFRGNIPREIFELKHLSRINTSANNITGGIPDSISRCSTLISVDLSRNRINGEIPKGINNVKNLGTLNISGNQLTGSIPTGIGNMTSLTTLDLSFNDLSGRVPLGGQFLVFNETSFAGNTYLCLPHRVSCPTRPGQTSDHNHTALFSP
Protocol: (§3) Aliquots (1,000 μg) of microsomal proteins for Halo-tagged receptors (CLV1-HT[10], TDR-HT[7] and CLV2-HT[20]) from tobacco BY-2 cells were suspended in 250 μl binding buffer (50 mM MES-KOH pH 5.5 with 100 mM sucrose) containing 30 nM [^125I]ASA-KIN in the presence or absence of various concentrations of competitor peptides indicated in corresponding figure legends and then incubated for 10 min on ice. The bound and free [^125I]ASA-KIN were separated by layering the reaction mixture onto 900 μl of wash buffer (50 mM MES-KOH pH 5.5 with 500 mM sucrose) and centrifuging for 5 min at 100,000 g at 4 °C. After discarding the supernatant, the pellet was irradiated on ice for 20 min with an ultraviolet lamp (model ENF-260C/J (365 nm), Spectronics Co. Ltd) at a distance of 1 cm. The cross-linked membrane proteins were solubilized, immunoprecipitated by using HaloTag antibody and separated by SDS–PAGE on a 7.5% acrylamide gel. The dried gels were exposed to the bio-imaging plate (MS 2,025, Fujifilm) for 2 days at room temperature and the plates were analysed using a bio-imaging analyser (Typhoon FLA 900, GE).

[5] = test system: shoot apical meristem (SAM); assay: Shoot apical meristem (SAM) morphology in sections; type: in vivo, Arabidopsis thaliana; settings: 10 μM peptide, 10-day treatment
Protocol: To observe the SAM, plants were germinated and grown at 22 °C under continuous light on half-strength MS medium supplemented with 1% sucrose and 10 μM peptide/control solution. To make sections, roots and leaves were cut off from 10-day-old seedlings, then fixed in FAA solution (50% ethanol:10% formalin:5% acetic acid in water) and embedded into Technovit 7,100 resin according to the manufacturer's instructions (Heraeus Kulzer). Four-micrometre-thin sections were made using a microtome (RM2235, Leica), stained with 0.05% toluidine blue and mounted in Entellan New (Merck) before observation with a light microscope (Axio Imager.A2, Zeiss).

[6] = biological target: T2, CLV2 ectodomain (CLV2-HT) (Arabidopsis thaliana, UniProt O80809); assay: Photo-affinity labelling with [125I]ASA-KIN, CLV2; type: binding; settings: 30 nM [125I]ASA-KIN probe, same condition, Supplementary Fig. 6
T2 construct: made in house; host or cells: tobacco BY-2 cells (microsomal fraction)
T2 sequence (O80809 26-686 limits assumed): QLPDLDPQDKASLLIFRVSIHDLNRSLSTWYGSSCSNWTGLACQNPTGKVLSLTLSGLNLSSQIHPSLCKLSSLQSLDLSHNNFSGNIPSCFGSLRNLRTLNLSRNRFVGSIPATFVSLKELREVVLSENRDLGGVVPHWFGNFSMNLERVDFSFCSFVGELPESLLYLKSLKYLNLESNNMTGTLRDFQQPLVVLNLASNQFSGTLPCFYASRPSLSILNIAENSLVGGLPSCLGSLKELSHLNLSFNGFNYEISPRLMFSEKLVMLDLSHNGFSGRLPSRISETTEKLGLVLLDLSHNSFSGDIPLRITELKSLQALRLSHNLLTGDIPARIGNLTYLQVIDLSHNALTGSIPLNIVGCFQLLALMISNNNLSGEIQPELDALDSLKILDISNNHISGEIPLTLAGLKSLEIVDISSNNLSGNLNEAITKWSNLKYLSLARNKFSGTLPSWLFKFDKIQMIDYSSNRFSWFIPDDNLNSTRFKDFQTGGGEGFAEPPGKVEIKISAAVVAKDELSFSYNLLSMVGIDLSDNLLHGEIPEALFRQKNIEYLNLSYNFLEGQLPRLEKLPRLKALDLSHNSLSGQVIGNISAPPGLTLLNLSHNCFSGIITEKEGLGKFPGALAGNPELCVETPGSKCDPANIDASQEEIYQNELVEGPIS
Protocol: as §3

TDR ectodomain (TDR-HT) = biological target: T3, TDR ectodomain (TDR-HT) (Arabidopsis thaliana, UniProt Q9FII5); assay: Photo-affinity labelling with [125I]ASA-KIN, TDR; type: binding
T3 construct: applied it to the membrane fractions containing receptor ectodomains expressed in tobacco cells; made in house; host or cells: tobacco BY-2 cells (microsomal fraction)
T3 sequence (Q9FII5 30-652 limits assumed): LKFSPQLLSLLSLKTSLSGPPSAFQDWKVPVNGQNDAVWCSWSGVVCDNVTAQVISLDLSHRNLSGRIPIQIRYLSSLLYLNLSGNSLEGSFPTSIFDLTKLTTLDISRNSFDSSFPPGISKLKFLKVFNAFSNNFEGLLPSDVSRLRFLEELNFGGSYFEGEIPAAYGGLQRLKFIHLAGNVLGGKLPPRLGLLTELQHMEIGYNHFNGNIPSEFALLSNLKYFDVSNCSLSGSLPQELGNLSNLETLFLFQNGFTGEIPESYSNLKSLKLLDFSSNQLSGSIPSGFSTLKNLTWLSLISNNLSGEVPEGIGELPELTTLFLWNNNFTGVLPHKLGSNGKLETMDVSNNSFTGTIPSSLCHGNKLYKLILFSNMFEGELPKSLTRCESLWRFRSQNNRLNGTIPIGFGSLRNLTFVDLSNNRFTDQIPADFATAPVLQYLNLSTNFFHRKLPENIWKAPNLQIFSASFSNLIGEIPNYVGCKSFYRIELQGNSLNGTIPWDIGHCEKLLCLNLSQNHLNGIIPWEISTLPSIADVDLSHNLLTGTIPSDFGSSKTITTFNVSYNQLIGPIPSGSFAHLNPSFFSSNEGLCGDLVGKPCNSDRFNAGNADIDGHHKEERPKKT
Protocol: as §3

[7] = wild type, Supplementary Fig. 1
[8] = 30 nM probe, MES-KOH pH 5.5, 10 min on ice, tobacco BY-2 microsomes, Fig. 3c
[9] = various concentrations of KIN, Supplementary Fig. 7

For [(4-azidosalicyl)Lys^2]KIN [ASA-KIN], the “bioactivity compared with KIN, hypocotyl stele thickening” value (hypocotyl stele; Supplementary Fig. 5c) was “reduced compared with the original KIN” and the “bioactivity compared with KIN, root shortening” value ([1]; 10 nM-1 µM, Supplementary Fig. 5b) was “reduced compared with the original KIN”.

In the case of “CLE25: endogenously encoded CLE peptide sequence, CLV3-type, synthesized without hydroxyprolines (RKVPNGPDPIHN; CLE25p no hydroxyprolines; UniProt Q8LFL4 58-69, looked up)”, the “effectiveness in the root-shortening assay” value [2] is listed as “more effective than CLV3”, the “effect on stele radial growth / stele width” value (hypocotyl stele; wild type, 2b) is listed as “reduce the thickening of vascular tissues in the hypocotyl” and the root-shortening activity ([1]; wild type) is listed as “showed root-shortening activities”. For the same substance, the “concentration at which bioactivity starts in root shortening assay” value [1, 7] was ~ 100 nM and the “size of the root apical meristem (RAM)” value [3] was “reduced”.

In the case of “CLV3: endogenously encoded 12 amino-acid CLE peptide, chemically synthesized without hydroxyprolines”, the “response of clv2-101 mutant to inhibitory activity on stele width” value (hypocotyl stele; 100 nM peptide, clv2-101 mutant, Fig. 2b) is reported as “insensitive”, the “effect on stele width at 100 nM” value (hypocotyl stele; 100 nM peptide, wild type, 10-day-old, Fig. 1g, 2b) is reported as “reduced the stele width” and the “effect on stele radial growth / stele width” value (hypocotyl stele; wild type, 2b) is reported as “reduced radial growth of the stele”. For the same substance, the “lowest concentration with negative effect on stele growth” value (hypocotyl stele; wild type, 10-day-old, dose-response Fig. 1g) was 30 nM, the “effect on xylem differentiation in leaf vein” value (leaf vein xylem strands) was “not observed” and the “competition of [125I]ASA-KIN labelling of CLV1” value ([4]; 1,000-fold excess non-radio-labelled peptide, Fig. 3c) was “competitively inhibited”. For the same substance, the root-shortening activity ([1]; wild type) was “showed root-shortening activities”, the “response of clv2-101 mutant, root length and RAM size” value ([1]; clv2-101 mutant, Supplementary Fig. 3a,b) was “resistant” and the “dose-response of root growth attenuation” value ([1]; wild type, 1 nM-1 µM, Supplementary Fig. 1) was “attenuates the root growth in a lower concentration than CLE25 and KIN”. The “concentration at which bioactivity starts in root shortening assay” value [1, 7] was ~ 10 nM, the “size of the root apical meristem (RAM)” value [3] was “reduced” and the “SAM of clv1-101 and clv2-101 mutants after treatment” value ([5]; loss-of-function mutants, Fig. 2a) was “maintained”. The “effect on SAM” value ([5]; wild type, Fig. 1d) was “disappeared”.

In the case of “CLV3-S^11th: CLV3 with H-to-S substitution at the 11th position (RTVPSGPDPLSHH; MCLV3; UniProt Q9XF04 70-82, looked up, variant H11S)”, the CLE41-type activity (hypocotyl stele; stele 10 µM, Supplementary Fig. 8) is reported as “neither CLV3 nor CLE41 activity”, the “interaction with CLV1 in competitive displacement assay with [125I]ASA-KIN” value ([4]; Supplementary Fig. 10) is reported as “retained the interaction with CLV1” and the CLV3-type activity [1] is reported as “neither CLV3 nor CLE41 activity”. The CLV3-type activity ([1]; listed as peptide 24) was “even weaker than KIN-1δ”.

In the case of “[^125I]-radiolabelled [(4-azidosalicyl)Lys^2]KIN [[^125I]ASA-KIN]”, the “photo-affinity labelling of CLV1 ectodomain” value [4, 8] is reported as “covalently labelled”, the “competitive displacement of probe binding to CLV1 by KIN” value [4, 9] is reported as “binds to these receptors in a similar manner” and the “interaction with CLV2 ectodomain” value [6] is reported as “no interaction was detected”. For the same substance, the “photo-affinity labelling of TDR ectodomain” value (TDR ectodomain (TDR-HT); [8]) was “covalently labelled” and the “competitive displacement of probe binding to TDR by KIN” value (TDR ectodomain (TDR-HT); [9]) was “binds to these receptors in a similar manner”.
